The results in this text go back to patent US6566355B1 (Hoffmann-La Roche Inc., priority 1991, dated 2003).

The subject of one assay is Citrobacter freundii. The assay is described as follows: MIC in vitro of a 1:4 combination of ceftriaxone with a compound of formula I (test D). It is filed as cell-based. As to conditions: 1:4 combination of ceftriaxone with the compound. On the procedure:
D. Determination of the β-lactamase-inhibiting activity by combination of a compound of general formula I with ceftriaxone
The minimum inhibitory concentration in vitro (MIC in μg/ml) of a 1:4 combination of ceftriaxone with a compound of formula I against Citrobacter freundii is measured and compiled in Table 2 hereinafter.

A further assay addresses T1, β-lactamase (Citrobacter freundii, UniProt P05193).
T1 construct: Various β-lactamases can be isolated from penicillin- or cephalosporin-resistant bacterial strains such as; endogenous in cells; host or cells: Citrobacter freundii 1203 (enzyme purified from the crude cell extract, after ampicillin induction when necessary)
The assay is described as follows: biochemical. The method in brief:
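β-lactamase from C. freundii 1203 crude extract (French press, 20 mM Tris-HCl pH 7.0) assayed with 0.1 mM nitrocefin in 50 mM phosphate pH 7.0 at 37° C, enzyme set to ΔA/min about 0.1, read at 482 nm. IC50 is inhibitor concentration giving 50% inhibition of nitrocefin cleavage, determined graphically.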

Setting [1] is: IC 50 nM, isolated β-lactamase of Citrobacter freundii, substrate nitrocefin 0.1 mM, 15 minutes pre-incubation with inhibitor, 37° C., pH 7.0.

The term MIC denotes the lowest concentration that inhibits growth of the organism. In general, IC50 refers to the point on the concentration scale where inhibition reaches its midpoint. A higher IC50 goes with lower potency.

Counter-ions that a name gives are not always drawn. Like-named read-outs stand apart in the source and are kept apart here.

T1 sequence (P05193 21-381): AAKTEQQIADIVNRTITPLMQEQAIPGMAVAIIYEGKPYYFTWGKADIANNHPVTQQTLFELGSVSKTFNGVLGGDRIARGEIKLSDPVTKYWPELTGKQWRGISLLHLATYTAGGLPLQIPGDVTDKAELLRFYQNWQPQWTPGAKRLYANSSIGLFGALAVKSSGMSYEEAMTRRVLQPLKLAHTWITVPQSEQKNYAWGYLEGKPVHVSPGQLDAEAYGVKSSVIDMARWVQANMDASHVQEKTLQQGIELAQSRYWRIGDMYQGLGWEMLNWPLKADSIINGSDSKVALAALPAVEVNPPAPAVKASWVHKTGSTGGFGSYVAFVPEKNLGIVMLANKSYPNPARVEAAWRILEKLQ

On to `COc1cc(CNC(=O)N2CC[C@@H]3[C@H]2C(=O)N3S(=O)(=O)[O-])on1.[Na+]` [17(aa), (1S,5R)-2-[3-Methoxy-isoxazol-5-ylmethylcarbamoyl]-7-oxo-2,6-diazabicyclo[3.2.0]heptane-6-sulfonic acid sodium salt], for which, in the assay with Citrobacter freundii, the “MIC” value amounted to 0.5 µg/mL. Besides, at β-lactamase (setting [1]), the IC50 was found to be 75 nM.
Consider `O=C(NCc1ccc(O)cc1)N1CC[C@@H]2[C@H]1C(=O)N2S(=O)(=O)[O-].[Na+]` [17(ab), (1S,5R)-2-[4-Hydroxy-benzylcarbamoyl]-7-oxo-2,6-diazabicyclo[3.2.0]heptane-6-sulfonic acid sodium salt], for which the “MIC” value in the assay on Citrobacter freundii came to 1 µg/mL. This compound also had an IC50 on β-lactamase (setting [1]) of 194 nM.
For `O=C(NC1CCCC1)N1CC[C@@H]2[C@H]1C(=O)N2S(=O)(=O)[O-].[Na+]` [17(ac), (1S,5R)-2-Cyclopentylcarbamoyl-7-oxo-2,6-diazabicyclo[3.2.0]heptane-6-sulfonic acid sodium salt] the same measures were 1 µg/mL and 70 nM.
For `O=C1OCCN1NC(=O)N1CC[C@@H]2[C@H]1C(=O)N2S(=O)(=O)[O-].[Na+]` [17(ad), (1S,5R)-7-Oxo-2-[2-oxo-oxazolidin-3-ylcarbamoyl]-2,6-diazabicyclo[3.2.0]heptane-6-sulfonic acid sodium salt] the same measures were 2 µg/mL and 75 nM.
Taken in the same sequence, the figures for `Nc1nc(CNC(=O)N2CC[C@@H]3[C@H]2C(=O)N3S(=O)(=O)[O-])cs1.[Na+]` [17(ae), (1S,5R)-2-[2-Amino-thiazol-4-ylmethylcarbamoyl]-7-oxo-2,6-diazabicyclo[3.2.0]heptane-6-sulfonic acid sodium salt] were 1 µg/mL and 200 nM.
For `O=C(NCc1nc(C2CC2)no1)N1CC[C@@H]2[C@H]1C(=O)N2S(=O)(=O)[O-].[Na+]` [17(af), (1S,5R)-2-(3-Cyclopropyl-1,2,4-oxadiazol-5-ylmethylcarbamoyl)-7-oxo-2,6-diazabicyclo[3.2.0]heptane-6-sulfonic acid sodium salt], in the assay on Citrobacter freundii, the “MIC” value is 1 µg/mL. This compound also yielded an IC50 against β-lactamase (setting [1]) of 107 nM.
Taken in the same sequence, the figures for `O=C1C[C@H](NC(=O)N2CC[C@@H]3[C@H]2C(=O)N3S(=O)(=O)[O-])C(=O)N1.[Na+]` [17(ag), (1S,5R)-7-Oxo-2-[(S)-2,5-dioxo-pyrrolidin-3-ylcarbamoyl]-2,6-diazabicyclo[3.2.0]heptane-6-sulfonic acid sodium salt] were 1 µg/mL and 337 nM.
For `O=C(NCCc1ccccn1)N1CC[C@@H]2[C@H]1C(=O)N2S(=O)(=O)[O-].[Na+]` [17(b), (1S,5R)-7-Oxo-2-[2-(pyridin-2-yl)ethylcarbamoyl]-2,6-diazabicyclo[3.2.0]heptane-6-sulphonic acid sodium salt] the same measures were 2 µg/mL and 285 nM.
For `O=C(NCc1ccccn1)N1CC[C@@H]2[C@H]1C(=O)N2S(=O)(=O)[O-].[Na+]` [17(c), (1S,5R)-7-Oxo-2-[(2-pyridylmethyl)carbamoyl]-2,6-diazabicyclo[3.2.0]heptane-6-sulphonic acid sodium salt] the same measures were 2 µg/mL and 400 nM.
Regarding `O=C(NNc1ccccc1)N1CC[C@@H]2[C@H]1C(=O)N2S(=O)(=O)O` [17(d), (1S,5R)-7-Oxo-2-(2-phenyl-carbazoyl)-2,6-diazabicyclo[3.2.0]heptane-6-sulphonic acid sodium salt], in the assay with Citrobacter freundii, the “MIC” value was determined as 2 µg/mL. Further, the IC50 at β-lactamase (setting [1]) came out at 197 nM.
Taken in the same sequence, the figures for `O=C(NCc1ccc(O)c(O)c1)N1CC[C@@H]2[C@H]1C(=O)N2S(=O)(=O)[O-].[Na+]` [17(e), (1S,5R)-2-(3,4-Dihydroxybenzylcarbamoyl)-7-oxo-2,6-diazabicyclo[3.2.0]heptane-6-sulphonic acid sodium salt] were 2 µg/mL and 250 nM.
Taken in the same sequence, the figures for `Cc1nnc(O)c(CNC(=O)N2CC[C@@H]3[C@H]2C(=O)N3S(=O)(=O)O)c1C` [17(f), (1S,5R)-2-(3-Hydroxy-5,6-dimethyl-pyridazin-4-yl-methylcarbamoyl)-7-oxo-2,6-diazabicyclo[3.2.0]heptane-6-sulphonic acid sodium salt] were 2 µg/mL and 193 nM.
Taken in the same sequence, the figures for `NS(=O)(=O)c1ccc(CNC(=O)N2CC[C@@H]3[C@H]2C(=O)N3S(=O)(=O)[O-])cc1.[Na+]` [17(g), (1S,5R)-7-Oxo-2-(4-sulphamoyl-benzylcarbamoyl)-2,6-diazabicyclo[3.2.0]heptane-6-sulphonic acid sodium salt] were 2 µg/mL and 427 nM.
Take `O=C(NCCc1ccc(O)c(O)c1)N1CC[C@@H]2[C@H]1C(=O)N2S(=O)(=O)[O-].[Na+]` [17(k), (1S,5R)-2-[2-(3,4-Dihydroxyphenyl)ethylcarbamoyl]-7-oxo-2,6-diazabicyclo[3.2.0]heptane-6-sulphonic acid sodium salt]: the “MIC” value in the assay with Citrobacter freundii came to 16 µg/mL. Also, the IC50 at β-lactamase (setting [1]) stood at 109 nM.
Turning to `COc1ccc(NC(=O)N2CC[C@@H]3[C@H]2C(=O)N3S(=O)(=O)[O-])cc1.[Na+]` [17(l), (1S,5R)-2-(4-Methoxyphenylcarbamoyl)-7-oxo-2,6-diazabicyclo[3.2.0]heptane-6-sulphonic acid sodium salt], in the assay on Citrobacter freundii, the “MIC” value came to 4 µg/mL. Half-maximal inhibition at β-lactamase (setting [1]) (IC50) was put at 437 nM.
Taken in the same sequence, the figures for `O=C(NCC1CCCCC1)N1CC[C@@H]2[C@H]1C(=O)N2S(=O)(=O)[O-].[Na+]` [17(m), (1S,5R)-2-Cyclohexylmethylcarbamoyl-7-oxo-2,6-diazabicyclo[3.2.0]heptane-6-sulphonic acid sodium salt] were 16 µg/mL and 359 nM.
Taken in the same sequence, the figures for `O=C(OCc1cccs1)N1CC[C@@H]2[C@H]1C(=O)N2S(=O)(=O)[O-].[Na+]` [17(n), (1S,5R)-7-Oxo-2-(thien-2-yl-methoxycarbonyl)-2,6-diazabicyclo[3.2.0]heptane-6-sulphonic acid sodium salt] were 16 µg/mL and 272 nM.
As for `O=C1SCC[C@H]1NC(=O)N1CC[C@@H]2[C@H]1C(=O)N2S(=O)(=O)O` [17(u), (1S,5R)-7-Oxo-2-(R)-(2-oxo-3-tetrahydrothienyl-carbamoyl)-2,6-diazabicyclo[3.2.0]heptane-6-sulphonic acid sodium salt], the “MIC” value with Citrobacter freundii worked out at 2 µg/mL. On β-lactamase, this compound yielded an IC50 of 62 nM.
Take `Cn1nnnc1CNC(=O)N1CC[C@@H]2[C@H]1C(=O)N2S(=O)(=O)[O-].[Na+]` [17(z), (1S,5R) -2-[1-Methyl-1H-tetrazol-5-ylmethylcarbamoyl]-7-oxo-2,6-diazabicyclo[3.2.0]heptane-6-sulfonic acid sodium salt]: the “MIC” value with Citrobacter freundii turned out to be 1 µg/mL. At β-lactamase (setting [1]), this compound had an IC50 of 98 nM.
For `Cc1cc(=O)oc2cc(OCC(=O)N3CC[C@@H]4[C@H]3C(=O)N4S(=O)(=O)[O-])ccc12.[Na+]` [23(a), (1S,5R)-2-(4-Methyl-2-oxo-2H-benzopyran-7-yloxyacetyl)-7-oxo-2,6-diazabicyclo[3.2.0]heptane-6-sulfonic acid sodium salt] the same measures were 16 µg/mL and 97 nM.
Taken in the same sequence, the figures for `Cn1cnnc1SCC(=O)N1CC[C@@H]2[C@H]1C(=O)N2S(=O)(=O)[O-].[Na+]` [23(b), (1S,5R)-2-(4-Methyl-4H-1,2,4-triazol-3-ylsulfanylacetyl)-7-oxo-2,6-diazabicyclo[3.2.0]heptane-6-sulfonic acid sodium salt] were 0.5 µg/mL and 50 nM.
Taken in the same sequence, the figures for `Cn1cccc1/C=C/C(=O)N1CC[C@@H]2[C@H]1C(=O)N2S(=O)(=O)[O-].[Na+]` [23(c), (1S,5R)-2-[(E)-3-(1-Methyl-pyrrol-2-yl)acryloyl]-7-oxo-2,6-diazabicyclo[3.2.0]heptane-6-sulfonic acid sodium salt] were 8 µg/mL and 420 nM.
Consider `Cn1ccnc1SCC(=O)N1CC[C@@H]2[C@H]1C(=O)N2S(=O)(=O)[O-].[Na+]` [23(d), (1S,5R)-2-(1-Methyl-imidazol-2-ylsulfanylacetyl)-7-oxo-2,6-diazabicyclo[3.2.0]heptane-6-sulfonic acid sodium salt], for which, in the assay with Citrobacter freundii, the “MIC” value is 1 µg/mL. Inhibition at β-lactamase (setting [1]) was half-maximal at 283 nM (IC50).
Regarding `O=C(/C=C/c1cc[nH]n1)N1CC[C@@H]2[C@H]1C(=O)N2S(=O)(=O)[O-].[Na+]` [23(e), (1S,5R)-7-Oxo-2-[(E)-3-pyrazol-3-yl-acryloyl]-2,6-diazabicyclo[3.2.0]heptane-6-sulfonic acid sodium salt], the “MIC” value in the assay on Citrobacter freundii is 1 µg/mL. For the same compound, inhibition on β-lactamase (setting [1]) was half-maximal at 138 nM (IC50).
Take `O=C(CNc1cc[nH]c(=O)n1)N1CC[C@@H]2[C@H]1C(=O)N2S(=O)(=O)O` [23(f), (1S,5R)-7-Oxo-(2-oxo-1,2-dihydro-pyrimidin-4-ylaminoacctyl)-2,6-diazabicyclo[3.2.0]heptane-6-sulfonic acid sodium salt]: the “MIC” value in the assay on Citrobacter freundii is 0.5 µg/mL. The compound also yielded an IC50 at β-lactamase of 30 nM.
Turning to `Nc1nc(SCC(=O)N2CC[C@@H]3[C@H]2C(=O)N3S(=O)(=O)[O-])n(C(=O)OCc2ccccc2)n1.[Na+]` [23(g), (1S,5R)-2-(5-Amino-2-benzyloxycarbonyl-2H-1,2,4-triazol-3-ylsulfanyl-acetyl)-7-oxo-2,6-diazabicyclo[3.2.0]heptane-6-sulfonic acid sodium salt], the “MIC” value with Citrobacter freundii was determined as 2 µg/mL. The compound also yielded an IC50 on β-lactamase (setting [1]) of 280 nM.
